The experiment has as its target T1, SGK1 (Homo sapiens, UniProt O00141).
T1 construct: purchased Carna Biosciences
T1 sequence (O00141 1-431): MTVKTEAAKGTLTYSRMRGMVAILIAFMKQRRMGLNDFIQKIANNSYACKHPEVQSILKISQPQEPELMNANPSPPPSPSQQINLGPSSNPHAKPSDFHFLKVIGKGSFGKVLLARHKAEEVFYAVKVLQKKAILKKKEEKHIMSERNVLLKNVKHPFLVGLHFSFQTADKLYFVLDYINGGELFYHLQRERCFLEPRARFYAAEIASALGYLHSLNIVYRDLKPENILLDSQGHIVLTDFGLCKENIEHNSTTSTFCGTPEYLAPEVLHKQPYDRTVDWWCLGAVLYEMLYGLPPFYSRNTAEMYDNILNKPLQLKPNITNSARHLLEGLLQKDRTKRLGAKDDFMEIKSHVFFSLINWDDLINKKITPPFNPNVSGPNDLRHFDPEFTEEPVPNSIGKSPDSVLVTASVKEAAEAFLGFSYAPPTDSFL
In words: LabChip (Caliper) kinase assay, SGK1. Format: biochemical. The note with it: read-out: remaining kinase activity (in %) / percentage of inhibition; for inhibition at 0.01 µM: compound at 10 nM; for inhibition at 0.1 µM: compound at 100 nM. Here is the method: The analysis of kinase activity described here was performed using LabChip (Caliper Life Sciences), specifically the Caliper LC3000 and the EZ Reader II instruments.
The kinase assay used measures the conversion of a fluorescent peptide (substrate) to a phosphorylated product. The reaction mixture, in a microplate well, is introduced by a capillary in a chip where the non-phosphorylated substrate and the phosphorylated product are separated by […]. The intensity of the fluorescent signal over time is related to the reaction progress. The phosphorylated product migrates quicker than the non-phosphorylated substrate and the signals of the two forms of the peptide appear as differentiated peaks. The Caliper determines the peak height and calculates the ratio of product to the peak sum (P/(P+S)). This value is used to compare wells with compounds and wells with controls and thus determine the % of inhibition for the given product.
The followings kinases were used for the enzymatic inhibition studies, between brackets the value of the Michaelis-Menten constant, Km, of the ATP (Adenosine triphosphate) for each kinase, in μM: obtained from Carna Biosciences: MAPKAPK2 (4.6), AurA (3.6), AurB (5), PKCζ (3.8), RSK1 (23.3), PRAK (5), Erk1 (33.4), PKD2 (32.1), CK1d (16.3), CHK1 (33), ABL (61.7), FYN (36), LYNa (17), CHK2 (57.8), MET (79.5), LCK (28.5), SRC (38), GSK3β (7.3), Erk2 (62.1), PKACα (1.7), AKT2 (186.1), INSR (871.8), p38a (396.5), AKT1(48), MSK1 (21.2), PKCβ2 (84.8), ROCK2 (3.3), PIM2 (4.9), AMPK (38.6), KDR (164.8), IRAK4 (196.5), SGK1 (121.8), SYK (33.5); obtained from Invitrogen: CDK2 (57.6), BTK (123), HGK (80); obtained from Upstate: MST2 (36.6), PKGα (16), PAK2 (1.9), IGF1R (320), FGFR1 (171), MARK1 (33), CAMK2δ (22.4), c-TAK1 (66), DYRK1a (18.1), CaMK4 (3.9), FLT3 (350), c-Raf (6.2), P70S6K (95).
The compounds were dissolved in 100% DMSO and were diluted at 25 times the final concentration desired for the assay. In the case of the determination of Cl50, serial dilutions were made to reach eight concentrations and give rise to the inhibition curve. 1 μL of each concentration is transferred, in duplicate to a 384-well microplate. 12 μL of enzymatic buffer is added to each well containing purified kinase (several suppliers as indicated above), 100 mM HEPES, pH 7.5, 1 mM DTT (Calbiochem), 0.002% Brij-35 (Sigma) and also in presence of 10 mM MgCl2 as cofactor, except for INSR and IRAK4 wherein 10 mM MnCl2 is used instead of MgCl2. For the kinases CAMK26 and CAMK4, 1 mM CaCl2 and 6.7 μg/mL of calmodulin are also added. For KDR kinase, 0.05% of the CHAPSO detergent is added. For the c-Raf kinase, 10 mM MnCl2 is added. For PKCβ2 0.02 μg/mL of PS/PMA is added. For PKGα se 10 μM of cGMP (cyclic guanosine monophosphate) is added. The compound and the enzyme are left for 15 minutes preincubation and, then, the following are added to each well: 12 μL of peptide buffer/ATP containing 100 mM HEPES, pH 7.5, 1.5 μM peptide marker with fluorescein (specific for the corresponding kinase), ATP (at concentration KM), and 0.002% Brij-35 to start the reaction. Generally, the reactions are incubated for 1-1.5 h at ambient temperature to obtain an adequate conversion (15-40%) of the peptide to the phosphorylated product. The reactions were ended by the addition of 45 μL of buffer containing 0 mM EDTA. The microplates were read by the LabChip 3000 using a 12-channel LabChip. The P/(P+S) values were obtained as described above and the CI50 curves were generated using XIfit. […]

Molecules are shown by their SMILES.

Turning to `C[C@@H]1O[C@@H](n2c3ccccc3c3c4c(c5c6ccccc6[nH]c5c32)C(=O)NC4=O)[C@H](O)[C@H](O)[C@H]1O` [formula (III), N^13-1′-β-L-rhamnosylarcyriaflavin], the inhibition at 0.01 µM is 8% and the inhibition at 0.1 µM was found to be 13%.
On to `C[C@@H]1O[C@@H](n2c3ccccc3c3c4c(c5c6ccccc6[nH]c5c32)C(=O)NC4=O)C[C@H](O)[C@H]1O` [formula (IV), N^13-1′-β-L-olivosylarcyriaflavin], for which the inhibition at 0.01 µM turned out to be 9% and the inhibition at 0.1 µM was found to be 17%.
`C[C@@H]1O[C@@H](n2c3ccccc3c3c4c(c5c6ccccc6[nH]c5c32)C(=O)NC4=O)C[C@@H](O)[C@H]1O` [formula (V), N^13-1′-β-L-digitoxosylarcyriaflavin]: the inhibition at 0.01 µM is 17% and the inhibition at 0.1 µM was determined as 37%.
In the case of `C[C@H]1O[C@@H](n2c3ccccc3c3c4c(c5c6ccccc6[nH]c5c32)C(=O)NC4=O)C[C@@H](O)[C@@H]1O` [formula (VI), N^13-1′-β-D-olivosylarcyriaflavin], the inhibition at 0.01 µM was determined as 12% and the inhibition at 0.1 µM was 27%.
The like results for `C[C@@H]1O[C@@H](n2c3ccccc3c3c4c(c5c6ccccc6[nH]c5c32)CNC4=O)[C@H](O)[C@H](O)[C@H]1O` [formula (XII), N^13-1′-β-L-rhamnosyl-k252c] were, in that order, 7% and 6%.
The like results for `C[C@@H]1O[C@@H](n2c3ccccc3c3c4c(c5c6ccccc6[nH]c5c32)CNC4=O)C[C@H](O)[C@H]1O` [formula (XIII), N^13-1′-β-L-olivosyl-k252c] were, in that order, 8% and 15%.
The like results for `C[C@@H]1O[C@@H](n2c3ccccc3c3c4c(c5c6ccccc6[nH]c5c32)CNC4=O)C[C@@H](O)[C@H]1O` [formula (XIV), N^13-1′-β-L-digitoxosyl-k252c] were, in that order, 6% and 14%.
Regarding `C[C@H]1O[C@@H](n2c3ccccc3c3c4c(c5c6ccccc6[nH]c5c32)CNC4=O)C[C@@H](O)[C@@H]1O` [formula (XV), N^13-1′-β-D-olivosyl-k252c], the inhibition at 0.01 µM worked out at 9% and the inhibition at 0.1 µM is 12%.

The values above are taken from patent US8598132B2, “Glycosylated indolocarbazoles, method for obtaining same and uses thereof” (Universidad de Oviedo, priority 2008, dated 2013).
